How the values were obtained:
[1] = test system: UWB 1.289; experiment: MTT in vitro antiproliferative assay, UWB 1.289; format: cell-based, human; details: UWB 1.289, MTT; for IC50 / GI50: Homo sapiens, UWB1289; for IC50: 48 h, 50% cell death; for GI50 / TGI: 48 h drug exposure
Excerpt: (§1) The in vitro antiproliferative activities of the novel triazolo[3,4-b]thiadiazole derivatives were estimated in ten well-established human cancer cell lines including three ovarian (SKOV-3, UWB 1.289, and UWB 1.289+BRCA1), five colorectal adenocarcinoma (DLD-1, HT-29, LS174T, LoVo, and SW403), and two prostate cancer cell lines (PC-3 and DU-145). All cancer cell lines were obtained from the American Type Culture Collection (ATCC) and cultivated in different culture media according to the instructions. The required growth mediums were supplemented with 10% fetal bovine serum and 1% streptomycin/penicillin. All cancer cell lines were cultured as monolayers and maintained at 37 °C, 5% CO2 in humidified air.
(§2) Stock solutions of all tested compounds were prepared by dissolving the required amount of substances in the DMSO solvent to reach the desired concentration of 15 mM.
(§3) To evaluate the in vitro antiproliferative activity of the triazolo[3,4-b]thiadiazole derivatives, 3-(4,5-dimethylthiazol-2-yl)-2,5-diphenyltetrazolium bromide (MTT) assay was assessed. According to the protocol, cells were firstly seeded into a 96-well plate at a density of 8 × 10^3 cells and grown for 24 h at 37 °C, 5% CO2 in humidified air. Subsequently, cells were treated with the tested compounds in a specific range of drug concentrations (1–100 μΜ). Following 48 h of drug exposure, the culture media were discarded and replaced with 100 μL of fresh medium. Afterwards, 50 μL of dissolved MTT in phosphate-buffered saline (PBS) solution (5 mg/mL) were added in each well and cells were incubated for 3 h at 37 °C, 5% CO2 in humidified air. Incubation time was followed by MTT discard and the addition of 100 μL of DMSO solvent so that the formazan crystals could be dissolved. The absorbance of the converted dye was immediately measured at a wavelength of 540 nm on an ELISA reader (VersaMax Microplate Reader, Orleans, CA, USA).
(§4) The in vitro anticancer effect of a tested compound on cell viability was determined by three dose–response parameters termed GI50, TGI, and IC50. More specifically, the GI50 value indicates the required concentration of the compound that impels 50% cell growth inhibition, the TGI value corresponds to the concentration that induces 100% cell growth inhibition, and the IC50 value is the concentration that causes 50% cell death. The two parameters GI50 and TGI represent the cytostatic activity, whereas IC50 reflects the cytotoxic effect of a drug. To estimate the three parameters, nine absorbance measurements were required including control 24 h (Ct24), control 72 h (Ct72), and the mean of cell survival in all seven drug concentrations (Tt72). The percentage growth inhibition was calculated according to National Cancer Institute’s (NCI) protocol: [(Tt72x) − (Ct24)/(Ct72) − (Ct24)] × 100 for concentrations for which Tt72x > Ct24 and [(Tt72x) − (Ct24)/Ct24] × 100 for concentrations for which Tt72x < Ct24. GI50 was calculated from [(Tt72x) − (Ct24)/(Ct72) − (Ct24)] × 100 = 50, TGI was calculated from [(Tt72x) − (Ct24)/(Ct72) − (Ct24)] × 100 = 0, and IC50 was calculated from [(Tt72x) − (Ct24)/Ct24] × 100 = 50. All the experiments were carried out in triplicate.

[2] = test system: LS174T; experiment: MTT in vitro antiproliferative assay, LS174T; format: cell-based, human; details: for TGI / GI50: 48 h drug exposure; for IC50 / GI50: Homo sapiens; for IC50: 48 h, 50% cell death
Excerpt: as §1, §2, §3, §4

[3] = test system: UWB1.289+BRCA1; experiment: MTT in vitro antiproliferative assay, UWB1.289+BRCA1; format: cell-based, human; details: UWB1.289+BRCA1, MTT; for IC50 / GI50: Homo sapiens; for IC50: 48 h, 50% cell death; for GI50 / TGI: 48 h drug exposure
Excerpt: as §1, §2, §3, §4

[4] = test system: SW403; experiment: MTT in vitro antiproliferative assay, SW403; format: cell-based, human; details: for TGI: 48 h drug exposure; for IC50 / GI50: Homo sapiens; for IC50: SW-403, 48 h, 50% cell death; for GI50: SW-403, 48 h drug exposure
Excerpt: as §1, §2, §3, §4

[5] = test system: HT-29 human tumor (colorectal adenocarcinoma) xenograft; experiment: In vivo antitumor activity, HT-29 xenograft; details: HT-29 xenograft in CB17 SCID mice; for volume size of the tumors: eighteen days after single i.p. dose at LD10; for tumor inhibition (TI): single i.p. dose at LD10
Description: CB17 severe combined immunodeficient (SCID) male and female mice were used for toxicity and antitumor activity studies. Mice were obtained from National Center for Scientific Research (NCSR) Demokritos, Institute of Biology, Athens, Greece. CB17 SCID mice were fed water and an irradiated standard rodent diet ad libitum and housed under specific pathogen-free conditions. For ethical reasons, the weight and tumor volumes of the animals were measured twice a week during the experiment. In case of cachexia, suffering, or increase in the tumor volume up to 2000 mm^3, the animals were sacrificed by cervical disruption. The protocol was approved by the ethical committee of the National and Kapodistrian University of Athens and was conducted according to the European Directive 86/609/EEC guidelines for the care and use of laboratory animals. The study received a permit from the Veterinary Directorate of the Prefecture of Athens (approval #: 2023/2017) according to the Greek legislation conforming to the 2010/53/ EU Council Directive.
HT-29 (human colorectal adenocarcinoma) tumor volume was developed by subcutaneously implanting 2 × 10^6 HT-29 cells/mouse in the right hind flank. In vivo antitumor activity was investigated in 22 mice, of which 7 mice served as the common control group and the 15 remaining mice were divided into three groups of 5 mice. Therefore, each derivative was administered in a group of five mice. The animals were randomized into test groups on day 28 when their tumor volumes were in the 150–200 mm^3 range. After randomization, the mice were treated intraperitoneally (day 1) with the tested compounds (KA25, KA26, and KA39) as a single dose LD10. The control group received saline buffer (0.2 mL).
The tumor volumes were measured using an analogue caliper twice a week starting on the first day of treatment. To determine the volume (mm^3) of each tumor in an animal, the following formula was used: (D × d^2/2), where D and d refer to the larger and smaller perpendicular dimensions collected at each measurement, respectively. The diameters were determined from two orthogonal measurements on each tumor. The mean tumor volume was determined by average all tumor volumes in each group. The weekly mean tumor area change was determined and tumor inhibition (TI) was calculated by the formula: TI (%) = [1 − (TWT − TWZ)/[(TWC − TWZ)] × 100, where TWT is determined as the tumor area (mm^3) in treated animals at the time of evaluation, TWZ is determined as the tumor area (mm^3) at the time of initiation of treatment (zero time), and TWC is determined as the tumor volume (mm^3) in untreated animals (controls) at the time of evaluation. The animals were sacrificed when the tumor volume reached 2000 mm^3 (endpoint).

[6] = test system: LoVo; experiment: MTT in vitro antiproliferative assay, LoVo; format: cell-based, human; details: for TGI / GI50: 48 h drug exposure; for IC50 / GI50: Homo sapiens; for IC50: 48 h, 50% cell death
Excerpt: as §1, §2, §3, §4

Compound | IC50 [1] [µM] | GI50 [1] [µM] | TGI [1] [μΜ] | TGI [2] [μΜ] | IC50 [2] [µM] | GI50 [2] [µM] | IC50 [3] [µM] | GI50 [3] [µM] | TGI [3] [μΜ] | TGI [4] [μΜ] | IC50 [4] [µM] | GI50 [4] [µM] | volume size of the tumors [5] [mm^3] | tumor inhibition (TI) [5] [%] | TGI [6] [μΜ] | IC50 [6] [µM] | GI50 [6] [µM]
COc1cc(Cc2nnc3sc(C=Cc4ccc(F)cc4)nn23)c(S(=O)(=O)N(C)C)cc1OC [KA25] | 62 ± 1.2 | 2 ± 0.5 | 5 ± 0.7 | 100 ± 0.1 | > 100 | 9.3 ± 2 | 38 ± 1.1 | 4 ± 0.5 | 13 ± 0.8 | >100 | > 100 | 4.8 ± 0.8 | 521.6 ± 101.6 | 62.1 | 13.8 ± 0.52 | > 100 | 8 ± 0.76
COc1cc(Cc2nnc3sc(C=Cc4ccc(Cl)cc4)nn23)c(S(=O)(=O)N(C)C)cc1OC [KA26] | 70 ± 1.4 | 29 ± 0.7 | 53 ± 1 | >100 | > 100 | 8 ± 1.5 | > 100 | 42 ± 0.5 | 65 ± 0.7 | >100 | > 100 | 11 ± 0.8 | 528.5 ± 167.7 | 62.4 | >100 | > 100 | 15 ± 0.8
COc1cc(Cc2nnc3sc(-c4cc([N+](=O)[O-])ccc4[N+](=O)[O-])nn23)c(S(=O)(=O)N(C)C)cc1OC [KA39] | 22 ± 1.2 | 6 ± 0.2 | 10 ± 0.8 | 17 ± 1.3 | 21.5 ± 1.5 | 12 ± 1.5 | 94 ± 2.3 | 6 ± 0.5 | 11 ± 0.7 | 7.9 ± 0.7 | 10 ± 0.76 | 5.2 ± 0.2 | 489.17 ± 81.5 | 67.6 | 5.5 ± 0.1 | 10.5 ± 0.15 | 2.2 ± 0.2

— paper PMC8066331, “Anticancer Activity of Triazolo-Thiadiazole Derivatives and Inhibition of AKT1 and AKT2 Activation” (Pharmaceutics, 2021)
